Test results: patent US20100311714A1, “1H-IMIDAZO[4,5-c]QUINOLINONE COMPOUNDS” (priority 2009, published 2010)
pIC50: −log10 of the molar value. Like-named read-outs stand apart in the source and are kept apart here.

Target: T1, PI3K alfa (Homo sapiens, UniProt P42336)
T1 construct: His tag (C); made in house; host or cells: baculovirus BV1075; Tn5 (Trichoplusia ni) or TiniPro insect cells
Experiment: PI3K alpha kinase assay (Kinase-Glo luminescence)
Type: biochemical
Description: In a more preferred assay, the kinase reaction is performed in a final volume of 10 μL per well of a low volume non binding CORNING, 384 well black plate (Cat. No. #3676). The final concentrations of ATP and phosphatidyl inositol (PI) in the assay are 1 μM and 10 μg/mL respectively. The reaction is started by the addition of ATP.
The components of the assay are added per well as follows:
50 nL test compounds in 90% DMSO per well, in columns 1-20, 8 concentrations (⅓ and 1/3.33 serial dilution step) in single. • Low control: […] of 90% DMSO in half the wells of columns 23-24 (0.45% in final). • High control: 50 nL of reference compound (e.g. compound of Example 7 in WO 2006/122806) in the other half of columns 23-24 (2.5 μM in final). • Standard: 50 nL of reference compound as just mentioned diluted as the test compounds in columns 21-22 • 20 mL ‘buffer’ are prepared per assay: • 200 μL of 1M TRIS HCl pH7.5 (10 mM in final) • 60 μL of 1M MgCl2 (3 mM in final) • 500 μL of 2M NaCl (50 mM in final) • 100 μL of 10% CHAPS (0.05% in final) • 200 μL of 100 mM DTT (1 mM in final) • 18.94 mL of nanopure water • 10 mL ‘PI’ are prepared per assay: • 200 μL of 1 mg/ml L-alpha-Phosphatidylinositol (Liver Bovine, Avanti Polar Lipids Cat. No. 840042C MW=909.12) prepared in 3% OctylGlucoside (10 μg/ml in final) • 9.8 mL of ‘buffer’ • 10 mL ‘ATP’ are prepared per assay: • 6.7 μL of 3 mM stock of ATP giving a final concentration of 1 μM per well • 10 mL of ‘buffer’ • 2.5 mL of each PI3K construct are prepared per assay in ‘PI’ with the following final concentration: • 10 nM PI3K alfa EMV B1075 • 25 nM beta EMV BV949 • 10 nM delta EMV BV1060 • 150 nM gamma EMV BV950 • 5 μL of ‘PI/PI3K’ are added per well. • 5 μl ‘ATP’ are added per well to start the reaction. • The plates are then incubated at room temperature for 60 minutes (alfa, beta, delta) or 120 minutes (gamma). • The reaction is terminated by the addition of 10 μL Kinase-Glo (Promega Cat. No. #6714). • The assay plates are read after 10 minutes in Synergy 2 reader (BioTek, Vermont USA) with an integration time of 100 milliseconds and sensitivity set to 191. • Output: The High control is around 60′000 counts and the Low control is 30′000 or lower • This luminescence assay gives a useful Z′ ratio between 0.4 and 0.7
Two different constructs, BV 1052 and BV 1075, are used to generate the PI3 Kinase α proteins for compound screening.
PI3K alpha is purified in three chromatographic steps: immobilized metal affinity chromatography on a Ni Sepharose resin (GE Healthcare, belonging to General Electric Company, Fairfield, Conn., USA), gel filtration utilizing a Superdex 200 26/60 column (GE Healthcare), and finally a cation exchange step on a SP-XL column (GE Healthcare). All buffers are chilled to 4° C. and lysis is performed chilled on ice. Column fractionation is performed rapidly at room temperature.
IC50 is determined by a four parameter curve fitting routine that comes along with “excel fit”. A 4 Parameter logistic equation is used to calculate IC50 values (IDBS XLfit) of the percentage inhibition of each compound at 8 concentrations (usually 10, 3.0, 1.0, 0.3, 0.1, 0.030, 0.010 and 0.003 μM). Alternatively, IC50 values are calculated using idbsXLfit model 204, which is a 4 parameter logistic model.

T1 sequence (P42336 with tags, fused parts or gaps limits assumed): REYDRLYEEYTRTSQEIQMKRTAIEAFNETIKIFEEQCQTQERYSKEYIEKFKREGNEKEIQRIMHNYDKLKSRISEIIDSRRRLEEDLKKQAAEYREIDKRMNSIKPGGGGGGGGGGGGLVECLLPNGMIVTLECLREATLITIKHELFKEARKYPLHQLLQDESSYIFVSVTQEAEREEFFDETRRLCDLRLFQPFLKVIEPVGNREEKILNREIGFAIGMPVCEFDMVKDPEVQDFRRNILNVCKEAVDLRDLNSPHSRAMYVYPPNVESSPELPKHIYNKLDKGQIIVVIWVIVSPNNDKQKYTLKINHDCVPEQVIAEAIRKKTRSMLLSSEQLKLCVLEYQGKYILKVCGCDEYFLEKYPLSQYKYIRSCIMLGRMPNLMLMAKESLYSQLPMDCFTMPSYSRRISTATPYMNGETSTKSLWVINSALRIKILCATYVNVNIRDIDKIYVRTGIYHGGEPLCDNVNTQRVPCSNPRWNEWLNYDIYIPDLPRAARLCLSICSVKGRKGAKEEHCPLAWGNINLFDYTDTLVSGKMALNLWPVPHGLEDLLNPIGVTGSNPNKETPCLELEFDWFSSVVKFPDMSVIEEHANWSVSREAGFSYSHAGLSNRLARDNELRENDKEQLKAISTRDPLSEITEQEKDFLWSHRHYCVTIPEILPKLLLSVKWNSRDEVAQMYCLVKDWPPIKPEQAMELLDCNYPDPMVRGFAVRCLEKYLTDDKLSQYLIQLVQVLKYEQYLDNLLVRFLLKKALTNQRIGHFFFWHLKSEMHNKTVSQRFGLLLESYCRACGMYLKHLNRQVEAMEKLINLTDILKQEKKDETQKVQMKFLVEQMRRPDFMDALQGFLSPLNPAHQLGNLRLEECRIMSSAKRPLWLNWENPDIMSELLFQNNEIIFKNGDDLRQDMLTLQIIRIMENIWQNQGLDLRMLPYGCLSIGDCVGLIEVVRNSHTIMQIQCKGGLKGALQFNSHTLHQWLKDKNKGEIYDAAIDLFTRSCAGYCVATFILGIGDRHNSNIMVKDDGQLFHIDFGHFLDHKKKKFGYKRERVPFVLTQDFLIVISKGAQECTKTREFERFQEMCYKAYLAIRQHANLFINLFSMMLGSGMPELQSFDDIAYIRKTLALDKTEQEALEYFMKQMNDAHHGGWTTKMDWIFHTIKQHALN

| SMILES | pIC50 (read-out: EPK_PI3Kalfa/IC50) | pIC50 (read-out: PI3Kalfa/IC50) |
| --- | --- | --- |
| CNc1cc(-c2ccc3ncc4c(c3c2)n(-c2cccnc2C)c(=O)n4C)cnc1C [Example 2.32, 3-Methyl-8-(6-methyl-5-methylamino-pyridin-3-yl)-1-(2-methyl-pyridin-3-yl)-1,3-dihydro-imidazo[4,5-c]quinolin-2-one] | 7.51 | – |
| Cc1ncccc1-n1c(=O)n(C)c2cnc3ccc(-c4cncc(N)c4)cc3c21 [Example 2.25, 8-(5-Amino-pyridin-3-yl)-3-methyl-1-(2-methyl-pyridin-3-yl)-1,3-dihydro-imidazo[4,5-c]quinolin-2-one] | 7.19 | – |
| COCc1ncc(-c2ccc3ncc4c(c3c2)n(-c2ccc(N3CCC3)nc2C)c(=O)n4C)cc1OC(C)C [Example 23.2, 1-(6-Azetidin-1-yl-2-methyl-pyridin-3-yl)-8-(5-isopropoxy-6-methoxymethyl-pyridin-3-yl)-3-methyl-1,3-dihydro-imidazo[4,5-c]quinolin-2-one] | 7.48 | – |
| COc1ccc(-c2ccc3ncc4c(c3c2)n(-c2cccnc2C)c(=O)n4C)cc1OC [Example 2.9, 8-(3,4-Dimethoxy-phenyl)-3-methyl-1-(2-methyl-pyridin-3-yl)-1,3-dihydro-imidazo[4,5-c]quinolin-2-one] | – | 7.92 |
| CCOc1ccc(-c2ccc3ncc4c(c3c2)n(-c2ccc(F)nc2C)c(=O)n4C)cn1 [Example 7.3, 8-(6-Ethoxy-pyridin-3-yl)-1-(6-fluoro-2-methyl-pyridin-3-yl)-3-methyl-1,3-dihydro-imidazo[4,5-c]quinolin-2-one] | – | 7.17 |
| Cc1ncccc1-n1c(=O)n(C)c2cnc3ccc(-c4ccc(N)nc4)cc3c21 [Example 2.7, 8-(6-Amino-pyridin-3-yl)-3-methyl-1-(2-methyl-pyridin-3-yl)-1,3-dihydro-imidazo[4,5-c]quinolin-2-one] | – | 7.74 |
| Cc1nc(N2CCC2)ccc1-n1c(=O)n(C)c2cnc3ccc(-c4cncc(N5CCC5)c4)cc3c21 [Example 23.1, 1-(6-Azetidin-1-yl-2-methyl-pyridin-3-yl)-8-(5-azetidin-1-yl-pyridin-3-yl)-3-methyl-1,3-dihydro-imidazo[4,5-c]quinolin-2-one] | 7.85 | – |
| CCOc1ncc(-c2ccc3ncc4c(c3c2)n(-c2ncccc2C)c(=O)n4C)cn1 [Example 3.1, 8-(2-Ethoxy-pyrimidin-5-yl)-3-methyl-1-(3-methyl-pyridin-2-yl)-1,3-dihydro-imidazo[4,5-c]quinolin-2-one] | – | 6.39 |
| Cc1nc(N(C)CCO)ccc1-n1c(=O)n(C)c2cnc3ccc(-c4cnc(N)c(C(F)(F)F)c4)cc3c21 [Example 26.1, 8-(6-Amino-5-trifluoromethyl-pyridin-3-yl)-1-{6-[(2-hydroxy-ethyl)-methyl-amino]-2-methyl-pyridin-3-yl}-3-methyl-1,3-dihydro-imidazo[4,5-c]quinolin-2-one] | 7.92 | – |
| Cc1nc(F)ccc1-n1c(=O)n(C)c2cnc3ccc(-c4cncc(C(C)(C)O)c4)cc3c21 [Example 7.8, 1-(6-Fluoro-2-methyl-pyridin-3-yl)-8-[5-(1-hydroxy-1-methyl-ethyl)-pyridin-3-yl]-3-methyl-1,3-dihydro-imidazo[4,5-c]quinolin-2-one] | 7.68 | – |
| CNc1ncc(-c2ccc3ncc4c(c3c2)n(-c2ncccc2C)c(=O)n4C)cn1 [Example 3.4, 3-Methyl-8-(2-methylamino-pyrimidin-5-yl)-1-(3-methyl-pyridin-2-yl)-1,3-dihydro-imidazo[4,5-c]quinolin-2-one] | – | 7.10 |
| CNc1ccc(-c2ccc3ncc4c(c3c2)n(-c2ccc(F)nc2C)c(=O)n4C)cn1 [Example 7.4, 1-(6-Fluoro-2-methyl-pyridin-3-yl)-3-methyl-8-(6-methylamino-pyridin-3-yl)-1,3-dihydro-imidazo[4,5-c]quinolin-2-one] | – | 7.57 |
| CNC(=O)c1ccc(-c2ccc3ncc4c(c3c2)n(-c2ncccc2C)c(=O)n4C)cc1 [Example 3.5, N-Methyl-4-[3-methyl-1-(3-methyl-pyridin-2-yl)-2-oxo-2,3-dihydro-1H-imidazo[4,5-c]quinolin-8-yl]-benzamide] | – | 7.28 |
| Cc1nc(C(F)(F)F)ccc1-n1c(=O)n(C)c2cnc3ccc(-c4cncc(C(C)(C)O)c4)cc3c21 [Example 33.1, 8-[5-(1-Hydroxy-1-methyl-ethyl)-pyridin-3-yl]-3-methyl-1-(2-methyl-6-trifluoromethyl-pyridin-3-yl)-1,3-dihydro-imidazo[4,5-c]quinolin-2-one] | 7.89 | – |
| Cc1ncccc1-n1c(=O)n(C)c2cnc3ccc(-c4cncc(NC(C)C)c4)cc3c21 [Example 2.24, 8-(5-Isopropylamino-pyridin-3-yl)-3-methyl-1-(2-methyl-pyridin-3-yl)-1,3-dihydro-imidazo[4,5-c]quinolin-2-one] | 7.55 | – |
| CCNc1ncc(-c2ccc3ncc4c(c3c2)n(-c2ccc(N3CC[C@@H](O)C3)nc2C)c(=O)n4C)cc1COCC [Example 34.4, 8-(5-Ethoxymethyl-6-ethylamino-pyridin-3-yl)-1-[6-((R)-3-hydroxy-pyrrolidin-1-yl)-2-methyl-pyridin-3-yl]-3-methyl-1,3-dihydro-imidazo[4,5-c]quinolin-2-one] | 7.18 | – |
| CCOc1ccc(-c2ccc3ncc4c(c3c2)n(-c2ccc(C(C)(C)O)nc2C)c(=O)n4C)cn1 [Example 31.4, 8-(6-Ethoxy-pyridin-3-yl)-1-[6-(1-hydroxy-1-methyl-ethyl)-2-methyl-pyridin-3-yl]-3-methyl-1,3-dihydro-imidazo[4,5-c]quinolin-2-one] | 7.08 | – |
| Cc1nc(C(C)(C)O)ccc1-n1c(=O)n(C)c2cnc3ccc(-c4cnc(N)c(C(F)(F)F)c4)cc3c21 [Example 31.5, 8-(6-Amino-5-trifluoromethyl-pyridin-3-yl)-1-[6-(1-hydroxy-1-methyl-ethyl)-2-methyl-pyridin-3-yl]-3-methyl-1,3-dihydro-imidazo[4,5-c]quinolin-2-one] | 8.22 | – |
| COc1cc(-c2ccc3ncc4c(c3c2)n(-c2cccnc2C)c(=O)n4C)cnc1C(OC)OC [Example 2.27, 8-(6-Dimethoxymethyl-5-methoxy-pyridin-3-yl)-3-methyl-1-(2-methyl-pyridin-3-yl)-1,3-dihydro-imidazo[4,5-c]quinolin-2-one] | 7.10 | – |
| Cc1cccnc1-n1c(=O)n(C)c2cnc3ccc(-c4ccc(N(C)C)nc4)cc3c21 [Example 3.11, 8-(6-Dimethylamino-pyridin-3-yl)-3-methyl-1-(3-methyl-pyridin-2-yl)-1,3-dihydro-imidazo[4,5-c]quinolin-2-one] | – | 6.49 |
| CCOc1cc(-c2ccc3ncc4c(c3c2)n(-c2ccc(N3CCC3)nc2C)c(=O)n4C)cnc1COC [Example 23.5, 1-(6-Azetidin-1-yl-2-methyl-pyridin-3-yl)-8-(5-ethoxy-6-methoxymethyl-pyridin-3-yl)-3-methyl-1,3-dihydro-imidazo[4,5-c]quinolin-2-one] | 7.68 | – |
| CNc1ncc(-c2ccc3ncc4c(c3c2)n(-c2ccc(N3CC[C@H](O)C3)nc2C)c(=O)n4C)cc1F [Example 32.2, 8-(5-Fluoro-6-methylamino-pyridin-3-yl)-1-[6-((S)-3-hydroxy-pyrrolidin-1-yl)-2-methyl-pyridin-3-yl]-3-methyl-1,3-dihydro-imidazo[4,5-c]quinolin-2-one] | 7.36 | – |
